Experimental data: patent US12234230B2, “Substituted benzyl-triazole compounds for Cbl-b inhibition, and further uses thereof” (Nurix Therapeutics, Inc., priority 2019, dated 2025)

Tests used:
Cbl-b = Cbl-b (Homo sapiens (Human), UniProt Q13191); test: Cbl-b displacement assay (Cbl-b inhibition assay), Biological Example 1; format: binding; details: 0.125 nM Cbl-b final concentration (Low); read-out: Cbl-b activity IC50 (Low)
Description: The ability of candidate compounds to displace a known inhibitor and thereby inhibit Cbl-b activity was measured by monitoring the interaction of Cbl-b with a fluorophore-labeled probe in the presence of the candidate compound.
Following the one hour incubation, the plates were read for TR-FRET signal at 520/620 nm using an Envision plate reader (Perkin Elmer).

[1] = test system: primary human total T-cells; test: Primary human total T-cell activation (IL-2 secretion, CD25 surface staining), Biological Example 2; details: fold change over baseline; for IL-2 secretion CD3/CD28 0.3 μM / CD25 staining CD3/CD28 0.3 μM: 0.3 μM inhibitor; for IL-2 secretion CD3/CD28 0.3 μM / IL-2 secretion CD3/CD28 1 μM / CD25 staining CD3/CD28 0.3 μM / CD25 staining CD3/CD28 1 μM: anti-CD3 and anti-CD28 co-stimulation; for IL-2 secretion CD3/CD28 1 μM / CD25 staining CD3 1 μM / IL-2 secretion CD3 1 μM / CD25 staining CD3/CD28 1 μM: 1 μM inhibitor; for CD25 staining CD3 1 μM / IL-2 secretion CD3 1 μM / CD25 staining CD3 3 μM / IL-2 secretion CD3 3 μM: anti-CD3 stimulation alone; for CD25 staining CD3 3 μM / IL-2 secretion CD3 3 μM: 3 μM inhibitor
Description: Peripheral blood mononuclear cells (PBMC) were obtained either: 1) by using Ficoll-Paque™ (GE Healthcare) for separation of peripheral blood hematopoietic cells from buffy coats of healthy human donors; or 2) directly from LeukoPak donations. […] The cells were rested overnight at 37° C. 5% CO2. The Cbl-inhibitor was added to 1×10^5 cells per well and the plate was incubated for one hour at 37° C. in 5% CO2 at the concentrations indicated (Table 3) with a final DMSO concentration of <0.1%. For samples stimulated with anti-CD3 antibody and anti-CD28 antibody (anti-CD3/anti-CD28), the Cbl-b inhibitor concentrations tested were 1 μM, and 0.3 μM. For samples stimulated with anti-CD3 antibody alone (anti-CD3), the Cbl-b inhibitor concentrations tested were 3 μM, and 1 μM. […] To prepare plates with plate bound anti-CD3 antibody (OKT3), 96-well round bottom tissue culture plates were coated with 100 μL of anti-CD3 antibody (OKT3) at 10 μg/mL for 4 hours at 37° C. 5% CO2 in phosphate buffered saline (PBS). […] Cells were stimulated for 48 hours prior to harvesting the cell free supernatant and staining the cell population for surface marker assessment by flow cytometry. Supernatants were analyzed for cytokine secretion, including IL-2 by ELISA (R&D Systems, Peprotech or Life Technologies) or Luminex multiplex kits (Procarta Life Technologies) following the manufacturer's protocol. Cells were stained with anti-CD25 antibody (BD Biosciences) to assess levels of surface marker of activation.
Readouts were reported as fold change over baseline. Baseline for this study was the measurement obtained from total human T-cells stimulated with anti-CD3 antibody and with soluble anti-CD28 antibody, wherein the cells were not incubated with a Cbl-b inhibitor (Table 3).

Chain of Cbl-b (Q13191 36-427): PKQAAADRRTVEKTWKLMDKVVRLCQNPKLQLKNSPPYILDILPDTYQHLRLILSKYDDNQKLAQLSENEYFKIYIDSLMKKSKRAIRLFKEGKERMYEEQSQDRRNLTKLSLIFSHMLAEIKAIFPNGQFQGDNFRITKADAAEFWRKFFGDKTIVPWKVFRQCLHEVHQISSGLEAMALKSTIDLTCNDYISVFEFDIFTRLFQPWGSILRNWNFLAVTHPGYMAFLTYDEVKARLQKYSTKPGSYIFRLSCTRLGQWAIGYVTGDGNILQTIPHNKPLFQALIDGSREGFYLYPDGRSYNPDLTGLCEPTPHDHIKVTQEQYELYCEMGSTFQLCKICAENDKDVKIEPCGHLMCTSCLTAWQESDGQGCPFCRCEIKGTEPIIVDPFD

Structure (SMILES) | IC50 (Cbl-b) [nM] | IL-2 secretion CD3/CD28 0.3 μM [1] | IL-2 secretion CD3/CD28 1 μM [1] | CD25 staining CD3 1 μM [1] | IL-2 secretion CD3 1 μM [1] | CD25 staining CD3 3 μM [1] | IL-2 secretion CD3 3 μM [1] | CD25 staining CD3/CD28 0.3 μM [1] | CD25 staining CD3/CD28 1 μM [1]
C[C@H]1CCCN(Cc2cc3c(c(C(F)(F)F)c2)CN(c2cccc([C@]4(c5nncn5C)C[C@@H](CC#N)C4)c2)C3=O)C1 [Compound 48, 2-((1R,3s)-3-(4-methyl-4H-1,2,4-triazol-3-yl)-3-(3-(6-(((S)-3-methylpiperidin-1-yl)methyl)-1-oxo-4-(trifluoromethyl)isoindolin-2-yl)phenyl)cyclobutyl)acetonitrile] | < 5 | B (B indicates 20-35 fold) | A (A indicates >35 fold) | A (A indicates >2.5 fold) | A (A indicates >1.1 fold) | B (B indicates 1.5-2.5 fold) | B (B indicates 0.70-1.1 fold) | – | –
C[C@@H]1CN(Cc2cc3c(c(C(F)(F)F)c2)CN(c2cccc([C@]4(c5nncn5C)C[C@@H](CC#N)C4)c2)C3=O)CCC1(F)F [Compound 49, 2-((1S,3s)-3-(3-(6-(((R)-4,4-difluoro-3-methylpiperidin-1-yl)methyl)-1-oxo-4-(trifluoromethyl)isoindolin-2-yl)phenyl)-3-(4-methyl-4H-1,2,4-triazol-3-yl)cyclobutyl)acetonitrile] | < 5 | A (A indicates >35 fold) | A (A indicates >35 fold) | A (A indicates >2.5 fold) | A (A indicates >1.1 fold) | A (A indicates >2.5 fold) | A (A indicates >1.1 fold) | B (B indicates 1.24-1.39 fold) | B (B indicates 1.24-1.39 fold)
C[C@H]1CCCN(Cc2cc3c(c(C(F)(F)F)c2)CN(c2cccc([C@]4(c5nncn5C)C[C@H](CC#N)C4)c2)C3=O)C1 [Compound 50, 2-((1S,3r)-3-(4-methyl-4H-1,2,4-triazol-3-yl)-3-(3-(6-(((S)-3-methylpiperidin-1-yl)methyl)-1-oxo-4-(trifluoromethyl)isoindolin-2-yl)phenyl)cyclobutyl)acetonitrile] | < 5 | A (A indicates >35 fold) | A (A indicates >35 fold) | A (A indicates >2.5 fold) | A (A indicates >1.1 fold) | A (A indicates >2.5 fold) | A (A indicates >1.1 fold) | – | –
C[C@@H]1CN(Cc2cc3c(c(C(F)(F)F)c2)CN(c2cccc([C@]4(c5nncn5C)C[C@H](CC#N)C4)c2)C3=O)CCC1(F)F [Compound 51, 2-((1R,3r)-3-(3-(6-(((R)-4,4-difluoro-3-methylpiperidin-1-yl)methyl)-1-oxo-4-(trifluoromethyl)isoindolin-2-yl)phenyl)-3-(4-methyl-4H-1,2,4-triazol-3-yl)cyclobutyl)acetonitrile] | < 5 | A (A indicates >35 fold) | A (A indicates >35 fold) | A (A indicates >2.5 fold) | A (A indicates >1.1 fold) | A (A indicates >2.5 fold) | A (A indicates >1.1 fold) | B (B indicates 1.24-1.39 fold) | B (B indicates 1.24-1.39 fold)
C[C@@H]1CN(Cc2cc3c(c(C(F)(F)F)c2)CN(c2cccc(C4(c5nncn5C)CC(F)(F)C4)c2)C3=O)CCC1(F)F [Compound 52, 2-{3-[3,3-difluoro-1-(4-methyl-1,2,4-triazol-3-yl)cyclobutyl]phenyl}-6-{[(3R)-4,4-difluoro-3-methylpiperidin-1-yl]methyl}-4-(trifluoromethyl)-3H-isoindol-1-one] | < 5 | A (A indicates >35 fold) | B (B indicates 20-35 fold) | A (A indicates >2.5 fold) | A (A indicates >1.1 fold) | A (A indicates >2.5 fold) | A (A indicates >1.1 fold) | – | –
C[C@@H]1CN(Cc2cc3c(c(C(F)(F)F)c2)CN(c2cccc(C4(c5nncn5C)CC(F)(F)C4)c2)C3=O)CCO1 [Compound 53, 2-{3-[3,3-difluoro-1-(4-methyl-1,2,4-triazol-3-yl)cyclobutyl]phenyl}-6-{[(2R)-2-methylmorpholin-4-yl]methyl}-4-(trifluoromethyl)-3H-isoindol-1-one] | < 5 | A (A indicates >35 fold) | A (A indicates >35 fold) | A (A indicates >2.5 fold) | A (A indicates >1.1 fold) | A (A indicates >2.5 fold) | A (A indicates >1.1 fold) | – | –

Now from value to compound, other results behind:

IC50 (Cbl-b) [nM] | Structure (SMILES) | IL-2 secretion CD3/CD28 0.3 μM [1] | IL-2 secretion CD3/CD28 1 μM [1] | CD25 staining CD3 1 μM [1] | IL-2 secretion CD3 1 μM [1] | CD25 staining CD3 3 μM [1] | IL-2 secretion CD3 3 μM [1] | CD25 staining CD3/CD28 0.3 μM [1] | CD25 staining CD3/CD28 1 μM [1]
< 5 | Cn1cnnc1C1(c2cccc(N3Cc4c(cc(CN5CCC[C@H](C(F)(F)F)C5)cc4C(F)(F)F)C3=O)c2)CC2(CC2)C1 [Compound 44, (S)-2-(3-(5-(4-methyl-4H-1,2,4-triazol-3-yl)spiro[2.3]hexan-5-yl)phenyl)-4-(trifluoromethyl)-6-((3-(trifluoromethyl)piperidin-1-yl)methyl)isoindolin-1-one] | B (B indicates 20-35 fold) | A (A indicates >35 fold) | A (A indicates >2.5 fold) | A (A indicates >1.1 fold) | A (A indicates >2.5 fold) | A (A indicates >1.1 fold) | – | –
< 5 | C[C@@H]1CN(C(C)(C)c2cc3c(c(C(F)(F)F)c2)CN(c2cccc(C4(c5nncn5C)CC5(CC5)C4)c2)C3=O)CCO1 [Compound 45, (R)-2-(3-(5-(4-methyl-4H-1,2,4-triazol-3-yl)spiro[2.3]hexan-5-yl)phenyl)-6-(2-(2-methylmorpholino)propan-2-yl)-4-(trifluoromethyl)isoindolin-1-one] | B (B indicates 20-35 fold) | B (B indicates 20-35 fold) | A (A indicates >2.5 fold) | A (A indicates >1.1 fold) | A (A indicates >2.5 fold) | A (A indicates >1.1 fold) | B (B indicates 1.24-1.39 fold) | –
< 5 | C[C@H]1CCCN(Cc2cc3c(c(C(F)(F)F)c2)CN(c2cccc(C4(c5nncn5C)COC4)c2)C3=O)C1 [Compound 46, 6-[[(3S)-3-methyl-1-piperidyl]methyl]-2-[3-[3-(4-methyl-1,2,4-triazol-3-yl)oxetan-3-yl]phenyl]-4-(trifluoromethyl)isoindolin-1-one] | A (A indicates >35 fold) | A (A indicates >35 fold) | B (B indicates 1.5-2.5 fold) | A (A indicates >1.1 fold) | A (A indicates >2.5 fold) | A (A indicates >1.1 fold) | B (B indicates 1.24-1.39 fold) | B (B indicates 1.24-1.39 fold)
< 5 | C[C@@H]1CN(Cc2cc3c(c(C(F)(F)F)c2)CN(c2cccc(C4(c5nncn5C)COC4)c2)C3=O)CCC1(F)F [Compound 47, 6-[[(3R)-4,4-difluoro-3-methyl-1-piperidyl]methyl]-2-[3-[3-(4-methyl-1,2,4-triazol-3-yl)oxetan-3-yl]phenyl]-4-(trifluoromethyl)isoindolin-1-one] | A (A indicates >35 fold) | A (A indicates >35 fold) | B (B indicates 1.5-2.5 fold) | B (B indicates 0.70-1.1 fold) | B (B indicates 1.5-2.5 fold) | C (C indicates <0.70 fold) | – | –
